From the supplement of paper PMC10307832

Experiments:
Assay in all cases: relative viability (nuclei count vs DMSO), 5 days (fraction); higher = more cells survive
[1] = test system: 201T
Summary of the method: (§1)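 Five library-drug doses in √10 steps were combined with a fixed anchor-drug dose, or a single drug was given alone, by pin tool to lung cancer cell lines in 1536-well plates the day after seeding. Nuclei were stained and counted after 5 days. Relative viability is the nuclei count in treated wells over that in vehicle wells, taken as the median of duplicate plates.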

[2] = test system: ABC-1
Summary of the method: as §1

[3] = test system: BEN
Summary of the method: as §1

[4] = test system: CAL-12T
Summary of the method: as §1

[5] = test system: COR-L 105
Summary of the method: as §1

[6] = test system: COR-L23
Summary of the method: as §1

[7] = test system: EKVX
Summary of the method: as §1

[8] = test system: HARA
Summary of the method: as §1

[9] = test system: HCC-366
Summary of the method: as §1

[10] = test system: LK-2
Summary of the method: as §1

[11] = test system: LU99A
Summary of the method: as §1

[12] = test system: NCI-H1437
Summary of the method: as §1

[13] = test system: NCI-H1650
Summary of the method: as §1

[14] = test system: NCI-H1666
Summary of the method: as §1

[15] = test system: NCI-H2009
Summary of the method: as §1

[16] = test system: NCI-H2170
Summary of the method: as §1

[17] = test system: NCI-H3122
Summary of the method: as §1

[18] = test system: NCI-H441
Summary of the method: as §1

[19] = test system: NCI-H661
Summary of the method: as §1

[20] = test system: NCI-H727
Summary of the method: as §1

[21] = test system: NCI-H838
Summary of the method: as §1

[22] = test system: PC-14
Summary of the method: as §1

`CC1(C)CCC(c2ccc(Cl)cc2)=C(CN2CCN(c3ccc(C(=O)NS(=O)(=O)c4ccc(N[C@H](CCN5CCOCC5)CSc5ccccc5)c(S(=O)(=O)C(F)(F)F)c4)cc3)CC2)C1` [Navitoclax] + C[C@@H](Oc1cc(-c2cnn(C3CCNCC3)c2)cnc1N)c1c(Cl)ccc(F)c1Cl [Crizotinib] (partner 1 µM) was tested, and the relative viability ([1]; first compound 0.005 µM) was 1.03, the relative viability ([1]; first compound 0.01581 µM) was 1.05 and the relative viability ([1]; first compound 0.05 µM) was 0.975. The relative viability ([1]; first compound 0.1581 µM) was 1.04, the relative viability ([1]; first compound 0.5 µM) was 1.03 and the relative viability ([2]; first compound 0.005 µM) was 1.19. The relative viability ([2]; first compound 0.01581 µM) was 1.4, the relative viability ([2]; first compound 0.05 µM) was 1.19 and the relative viability ([2]; first compound 0.1581 µM) was 1.14. It also gave a relative viability ([2]; first compound 0.5 µM) of 0.983, a relative viability ([3]; first compound 0.005 µM) of 0.878 and a relative viability ([3]; first compound 0.01581 µM) of 0.897. For the same compound, the relative viability ([3]; first compound 0.05 µM) was 0.936, the relative viability ([3]; first compound 0.1581 µM) was 0.944 and the relative viability ([3]; first compound 0.5 µM) was 0.662. For the same compound, the relative viability ([4]; first compound 0.005 µM) was 0.589, the relative viability ([4]; first compound 0.01581 µM) was 0.653 and the relative viability ([4]; first compound 0.05 µM) was 0.725. It also gave a relative viability ([4]; first compound 0.1581 µM) of 0.744, a relative viability ([4]; first compound 0.5 µM) of 0.536 and a relative viability ([5]; first compound 0.005 µM) of 0.651. The relative viability ([5]; first compound 0.01581 µM) was 0.98, the relative viability ([5]; first compound 0.05 µM) was 0.773 and the relative viability ([5]; first compound 0.1581 µM) was 0.927. For the same compound, the relative viability ([5]; first compound 0.5 µM) was 0.699, the relative viability ([6]; first compound 0.005 µM) was 0.618 and the relative viability ([6]; first compound 0.01581 µM) was 0.712. It also gave a relative viability ([6]; first compound 0.05 µM) of 0.686, a relative viability ([6]; first compound 0.1581 µM) of 0.664 and a relative viability ([6]; first compound 0.5 µM) of 0.643. The relative viability ([7]; first compound 0.005 µM) was 1, the relative viability ([7]; first compound 0.01581 µM) was 1.16 and the relative viability ([7]; first compound 0.05 µM) was 1.08. The relative viability ([7]; first compound 0.1581 µM) was 0.93, the relative viability ([7]; first compound 0.5 µM) was 0.888 and the relative viability ([8]; first compound 0.005 µM) was 1.09. It also gave a relative viability ([8]; first compound 0.01581 µM) of 1.16, a relative viability ([8]; first compound 0.05 µM) of 0.944 and a relative viability ([8]; first compound 0.1581 µM) of 0.907. The relative viability ([8]; first compound 0.5 µM) was 1.01, the relative viability ([9]; first compound 0.005 µM) was 0.456 and the relative viability ([9]; first compound 0.01581 µM) was 0.635. For the same compound, the relative viability ([9]; first compound 0.05 µM) was 0.0527, the relative viability ([9]; first compound 0.1581 µM) was 0.514 and the relative viability ([9]; first compound 0.5 µM) was 0.562. For the same compound, the relative viability ([10]; first compound 0.005 µM) was 0.226, the relative viability ([10]; first compound 0.01581 µM) was 0.21 and the relative viability ([10]; first compound 0.05 µM) was 0.246. It also gave a relative viability ([10]; first compound 0.1581 µM) of 0.191, a relative viability ([10]; first compound 0.5 µM) of 0.263 and a relative viability ([11]; first compound 0.005 µM) of 0.549. The relative viability ([11]; first compound 0.01581 µM) was 0.691, the relative viability ([11]; first compound 0.05 µM) was 0.39 and the relative viability ([11]; first compound 0.1581 µM) was 0.588. It also gave a relative viability ([11]; first compound 0.5 µM) of 0.638, a relative viability ([12]; first compound 0.005 µM) of 0.916 and a relative viability ([12]; first compound 0.01581 µM) of 0.93. It also gave a relative viability ([12]; first compound 0.05 µM) of 0.892, a relative viability ([12]; first compound 0.1581 µM) of 0.961 and a relative viability ([12]; first compound 0.5 µM) of 0.873. It also gave a relative viability ([13]; first compound 0.005 µM) of 0.995, a relative viability ([13]; first compound 0.01581 µM) of 1.13 and a relative viability ([13]; first compound 0.05 µM) of 1.17. The relative viability ([13]; first compound 0.1581 µM) was 0.938, the relative viability ([13]; first compound 0.5 µM) was 0.667 and the relative viability ([14]; first compound 0.005 µM) was 0.991. For the same compound, the relative viability ([14]; first compound 0.01581 µM) was 1.08, the relative viability ([14]; first compound 0.05 µM) was 1.03 and the relative viability ([14]; first compound 0.1581 µM) was 0.879. For the same compound, the relative viability ([14]; first compound 0.5 µM) was 0.975, the relative viability ([15]; first compound 0.005 µM) was 0.972 and the relative viability ([15]; first compound 0.01581 µM) was 1.05. The relative viability ([15]; first compound 0.05 µM) was 1.1, the relative viability ([15]; first compound 0.1581 µM) was 1.13 and the relative viability ([15]; first compound 0.5 µM) was 1.05. It also gave a relative viability ([16]; first compound 0.005 µM) of 1.06, a relative viability ([16]; first compound 0.01581 µM) of 1.28 and a relative viability ([16]; first compound 0.05 µM) of 1.21. For the same compound, the relative viability ([16]; first compound 0.1581 µM) was 1.06, the relative viability ([16]; first compound 0.5 µM) was 1.05 and the relative viability ([17]; first compound 0.005 µM) was 0.254. It also gave a relative viability ([17]; first compound 0.01581 µM) of 0.308, a relative viability ([17]; first compound 0.05 µM) of 0.244 and a relative viability ([17]; first compound 0.1581 µM) of 0.306. It also gave a relative viability ([17]; first compound 0.5 µM) of 0.292, a relative viability ([18]; first compound 0.005 µM) of 0.657 and a relative viability ([18]; first compound 0.01581 µM) of 0.865. The relative viability ([18]; first compound 0.05 µM) was 0.734, the relative viability ([18]; first compound 0.1581 µM) was 0.764 and the relative viability ([18]; first compound 0.5 µM) was 0.621. It also gave a relative viability ([19]; first compound 0.005 µM) of 1.12, a relative viability ([19]; first compound 0.01581 µM) of 0.964 and a relative viability ([19]; first compound 0.05 µM) of 0.947. For the same compound, the relative viability ([19]; first compound 0.1581 µM) was 0.951, the relative viability ([19]; first compound 0.5 µM) was 1 and the relative viability ([20]; first compound 0.005 µM) was 0.692. It also gave a relative viability ([20]; first compound 0.01581 µM) of 1.11, a relative viability ([20]; first compound 0.1581 µM) of 0.797 and a relative viability ([20]; first compound 0.5 µM) of 0.73. It also gave a relative viability ([21]; first compound 0.005 µM) of 0.794, a relative viability ([21]; first compound 0.01581 µM) of 0.885 and a relative viability ([21]; first compound 0.05 µM) of 1.01. For the same compound, the relative viability ([21]; first compound 0.1581 µM) was 0.802, the relative viability ([21]; first compound 0.5 µM) was 0.817 and the relative viability ([22]; first compound 0.005 µM) was 0.905. It also gave a relative viability ([22]; first compound 0.01581 µM) of 0.977, a relative viability ([22]; first compound 0.05 µM) of 0.951 and a relative viability ([22]; first compound 0.1581 µM) of 0.886. For the same compound, the relative viability ([22]; first compound 0.5 µM) was 0.952.
